Test results published in patent US9962453B2, “Immunogenic compound” (ALTIMMUNE UK LIMITED, priority 2013, dated 2018).
Marks after values point to notes of the source that are not given here.

Assay: Particle size measurement (dynamic light scattering) and visual solubility in aqueous solutions; as to particle size, HIST/NaCl: unit not given here; as to particle size, HIST: unit not given here; as to particle size, NaCl: unit not given here; as to particle size, PBS: unit not given here; as to particle size, Water: unit not given here
Conditions: for particle size, HIST: 2 mg net mass/ml in 28 mM L-Histidine buffer, pH 5.9 to 6.4; for particle size, HIST/NaCl: 2 mg net mass/ml in 0.9% sodium chloride in 28 mM L-histidine, pH 5.9 to 6.3; for particle size, NaCl: 2 mg net mass/ml in 0.9% sodium chloride, pH 3.3 to 4.2; for particle size, PBS: 2 mg net mass/ml in 1× PBS, pH 6.9 to 7.5; for particle size, Water: 2 mg net mass/ml in water, pH 3.1 to 4.1, 20 °C; for behaviour in the particle size assay: water, HIST, NaCl versus HIST/NaCl, PBS

Substance: Ac-LRLLAAHLALHAALLRLL-NH2 [Peptide 10, Ac-LRLLAAHLALHAALLRLL-NH2]
- particle size, HIST: INS.
- particle size, HIST/NaCl: INS.
- particle size, NaCl: INS.
- particle size, PBS: INS.
- particle size, Water: INS.

Substance: Ac-LRLLHAALALAAHLLRLL-NH2 [Peptide 8, Ac-LRLLHAALALAAHLLRLL-NH2]
- particle size, HIST: INS.
- particle size, HIST/NaCl: INS.
- particle size, NaCl: INS.
- particle size, PBS: INS.
- particle size, Water: INS.

Substance: Ac-LRLLHALLALLAHLLRLL-NH2 [Peptide 6, Ac-LRLLHALLALLAHLLRLL-NH2]
- particle size, HIST: INS.
- particle size, HIST/NaCl: INS.
- particle size, NaCl: INS.
- particle size, PBS: INS.
- particle size, Water: INS.

Substance: Ac-LRLLHAPLALPAHLLRLL-NH2 [Peptide 7, Ac-LRLLHAPLALPAHLLRLL-NH2]
- particle size, HIST: 0*
- particle size, HIST/NaCl: INS.
- particle size, NaCl: 0*
- particle size, PBS: INS.
- particle size, Water: 0*

Substance: Ac-LRLLPAHLALHAPLLRLL-NH2 [Peptide 9, Ac-LRLLPAHLALHAPLLRLL-NH2]
- particle size, HIST: 0*
- particle size, HIST/NaCl: INS.
- particle size, NaCl: 6.02*
- particle size, PBS: INS.
- particle size, Water: 0*

Substance: Ac-RRLKKAKLKLKAKKLRRL-NH2 [Peptide 19, Ac-RRLKKAKLKLKAKKLRRL-NH2]
- particle size, HIST: 0*
- particle size, HIST/NaCl: 0*
- particle size, NaCl: 0*
- particle size, PBS: 0*
- particle size, Water: 0*

Substance: Ac-RRLLAAHLALHAALLRRL-NH2 [Peptide 15, Ac-RRLLAAHLALHAALLRRL-NH2]
- particle size, HIST: 0*
- particle size, HIST/NaCl: 2.66*
- particle size, NaCl: 0*
- particle size, PBS: 360.7*
- particle size, Water: 0*

Substance: Ac-RRLLAAPLALPAALLRRL-NH2 [Peptide 5, Ac-RRLLAAPLALPAALLRRL-NH2]
- particle size, HIST: 0*
- particle size, HIST/NaCl: 3.3*
- particle size, NaCl: 1.6*
- particle size, PBS: 1.35*
- particle size, Water: 0*

Substance: Ac-RRLLHAALALAAHLLRRL-NH2 [Peptide 13, Ac-RRLLHAALALAAHLLRRL-NH2]
- particle size, HIST: 0*
- particle size, HIST/NaCl: 2.7*
- particle size, NaCl: 2.2*
- particle size, PBS: 2.3*
- particle size, Water: 0*

Substance: Ac-RRLLHAHLALHAHLLRRL-NH2 [Peptide 16, Ac-RRLLHAHLALHAHLLRRL-NH2]
- particle size, HIST: 0*
- particle size, HIST/NaCl: 1.83*
- particle size, NaCl: 0*
- particle size, PBS: 1.4*
- particle size, Water: 0*
- behaviour in the particle size assay: apparent solubility in water, 28 mM L-Histidine and 0.9% NaCl with the formation of larger particles or insoluble aggregates in 28 mM L-Histidine/NaCl or PBS

Substance: Ac-RRLLHAKLALKAHLLRRL-NH2 [Peptide 17, Ac-RRLLHAKLALKAHLLRRL-NH2]
- particle size, HIST: 0*
- particle size, HIST/NaCl: 0*
- particle size, NaCl: 0*
- particle size, PBS: 0*
- particle size, Water: 0*

Substance: Ac-RRLLHALLALLAHLLRRL-NH2 [Peptide 11, Ac-RRLLHALLALLAHLLRRL-NH2]
- particle size, HIST: 0*
- particle size, HIST/NaCl: INS.
- particle size, NaCl: 0*
- particle size, PBS: INS.
- particle size, Water: 0*

Substance: Ac-RRLLHAPLALPAHLLRRL-NH2 [Peptide 12, Ac-RRLLHAPLALPAHLLRRL-NH2]
- particle size, HIST: 0*
- particle size, HIST/NaCl: 0*
- particle size, NaCl: 0*
- particle size, PBS: 1.35*
- particle size, Water: 0*

Substance: Ac-RRLLKAKLALKAKLLRRL-NH2 [Peptide 18, Ac-RRLLKAKLALKAKLLRRL-NH2]
- particle size, HIST: 0*
- particle size, HIST/NaCl: 0*
- particle size, NaCl: 0*
- particle size, PBS: 0*
- particle size, Water: 0*

Substance: Ac-RRLLLAPLALPALLLRRL-NH2 [Peptide 4, Ac-RRLLLAPLALPALLLRRL-NH2]
- particle size, HIST: 0*
- particle size, HIST/NaCl: 0*
- particle size, NaCl: 0*
- particle size, PBS: 2.38*
- particle size, Water: 0*

Substance: Ac-RRLLPAALALAAPLLRRL-NH2 [Peptide 2, Ac-RRLLPAALALAAPLLRRL-NH2]
- particle size, HIST: 0*
- particle size, HIST/NaCl: 0*
- particle size, NaCl: 0*
- particle size, PBS: 4.52*
- particle size, Water: 0*

Substance: Ac-RRLLPAHLALHAPLLRRL-NH2 [Peptide 14, Ac-RRLLPAHLALHAPLLRRL-NH2]
- particle size, HIST: 0*
- particle size, HIST/NaCl: 0*
- particle size, NaCl: 0*
- particle size, PBS: 1.5*
- particle size, Water: 0*

Substance: Ac-RRLLPALLALLAPLLRRL-NH2 [Peptide 3, Ac-RRLLPALLALLAPLLRRL-NH2]
- particle size, HIST: 0*
- particle size, HIST/NaCl: 0*
- particle size, NaCl: 0*
- particle size, PBS: 3.37*
- particle size, Water: 0*

Substance: Ac-RRLLPAPLALPAPLLRRL-NH2 [Peptide 1, Ac-RRLLPAPLALPAPLLRRL-NH2]
- particle size, HIST: 0*
- particle size, HIST/NaCl: 0.87*
- particle size, NaCl: 0*
- particle size, PBS: 2.39*
- particle size, Water: 0*

Substance: H-K(Ac)RRLLHAHLALHAHLLRRLK(Ac)-NH2 [Peptide 16′, K(Ac)RRLLHAHLALHAHLLRRLK(Ac)-NH2]
- particle size, HIST: 0*
- particle size, HIST/NaCl: 2.3*
- particle size, NaCl: 0*
- particle size, PBS: 2.9*
- particle size, Water: 0*
- behaviour in the particle size assay: apparent solubility in water, 28 mM L-Histidine and 0.9% NaCl with the formation of larger particles or insoluble aggregates in 28 mM L-Histidine/NaCl or PBS
